Assays:
[1] = tested on: A2780cisR ovarian carcinoma cell line; assay: MTT assay, inhibition of cell viability; format: cell-based; settings: for IC50: cisplatin-resistant A2780cisR ovarian carcinoma cell line, 72 hours of incubation, MTT assay; for cytotoxic activity (in words): A2780cisR, statement drawn from Table 1
Experimental: (§1) The effects of the clusters on the cancer cell growth were evaluated after an exposure period of 72 hours using the MTT [3-(4,5-dimethylthiazol-2-yl)-2,5-diphenyltetrazolium bromide] assay which measures mitochondrial dehydrogenase activity as an indication of cell viability. In addition, the dose-response curves for 1a and 1b against the two cell lines are illustrated in Figures 2a and 2b. Table 1. Inhibition of cell viability (IC50) of complexes on A2780 and A2780cisR ovarian carcinoma cell lines after 72 hours of incubation, determined using MTT assay.

[2] = tested on: A2780 ovarian carcinoma cell line; assay: MTT assay, inhibition of cell viability; format: cell-based; settings: for IC50: A2780 ovarian carcinoma cell line, 72 hours of incubation, MTT assay; for cytotoxic activity (in words): A2780, statement drawn from Table 1
Experimental: as §1

| Molecule | IC50 [1] [µM] | IC50 [2] [µM] | increase in cisplatin resistance ([1]; A2780cisR versus A2780) [fold] | cytotoxic activity (in words) [1] | cytotoxic activity (in words) [2] |
| --- | --- | --- | --- | --- | --- |
| N.N.[Cl][Pt][Cl] [Cisplatin, reference compound] | 8.7 ± 1.6 | 1.5 ± 0.3 | 6 |  |  |
| Cc1ccc(C(C)C)cc1.[Cl][Ru]([Cl])[PH]12CN3CN(CN(C3)C1)C2 [RAPTA-C, reference compound] | > 100 | > 100 |  |  |  |
| [(η^6-C6H5Me)4Ru4(µ-H)4][BF4]2 [Compound 2b] | > 100 | > 100 |  |  |  |
| [(η^6-C6H6)4Ru4(µ-H)3(µ-OH)][Cl]2 [Compound 2c] | > 100 | > 100 |  |  |  |

Continued, in another order:

| IC50 [1] [µM] | IC50 [2] [µM] | Molecule | increase in cisplatin resistance ([1]; A2780cisR versus A2780) [fold] | cytotoxic activity (in words) [1] | cytotoxic activity (in words) [2] |
| --- | --- | --- | --- | --- | --- |
| > 100 | > 100 | [(η^6-C6H6)4Ru4(µ-H)4][BF4]2 [Compound 2a] |  |  |  |
| 28.9 ± 2.8 | 9.1 ± 0.9 | [(η^6-C6H6)(η^6-1,4-^iPrC6H4Me)(η^6-C6Me6)Ru3(µ-H)3(µ3-O)][BF4] [Compound 1b] |  | remarkably active | remarkably active |
| 14.6 ± 0.7 | 9.8 ± 0.2 | [(η^6-C6H6)(η^6-C6Me6)2Ru3(µ-H)3(µ3-O)][BF4] [Compound 1a] |  | remarkably active | remarkably active |
